Reference: US8999973B2, “Thieno[3,2-d]pyrimidine derivatives having inhibitory activity on protein kinases” (Hanmi Science Co., Ltd, priority 2010, dated 2015)
Numbering of substitutions follows the chain as printed.

Key:
Bcr-Abl^wt = target: T1, Bcr-Abl^wt (Homo sapiens, UniProt P00519); experiment: Kinase activation assay (IC50), fluorescence polarization tyrosine kinase assay kit; type: biochemical; details: kinase domain (Millipore), Poly (Glu, Tyr) 4:1 substrate, FP readout
T1 construct: purchased Millipore
T1 sequence (P00519 242-493 limits assumed): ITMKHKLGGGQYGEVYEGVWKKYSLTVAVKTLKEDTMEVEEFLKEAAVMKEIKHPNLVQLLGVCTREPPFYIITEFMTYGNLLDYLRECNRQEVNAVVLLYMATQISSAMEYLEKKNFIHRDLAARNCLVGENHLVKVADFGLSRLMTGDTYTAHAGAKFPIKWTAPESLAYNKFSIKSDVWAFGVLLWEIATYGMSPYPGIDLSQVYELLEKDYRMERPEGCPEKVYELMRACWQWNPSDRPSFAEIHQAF
Method: (§1) Test 1: Kinase Activation Assay (IC50)
(§2) A kinase domain (Millipore) comprising the entire cytoplasmic sequences of Bcr-Abl^wt and Bcr-Abl^T315I mutation kinases and a tyrosine kinase assay kit (Panvera, P2837) were used to measure an inhibitory activation on Bcr-abl. Other kinases such as FGFR, Flt, KDR, PDGFR, Fms, Kit, Raf, Tie2, Src, and Ret were also measured by the same method. In order to prepare a sample, the each compound obtained in Examples 1 to 128 was diluted 10 times with a kinase buffer to a concentration of 10˜0.0001 μM.
(§3) The each kinase was diluted with a kinase buffer to a concentration of 30˜300 ng/assay by using the each Kd value. The kinase buffer consisted of 100 mM HEPES (PH 7.4), 25 mM MgCl2, 10 mM MnCl2, and 250 μM Na3VO4, being kept refrigerated after filtered.
(§4) The test was conducted in 96 well polystyrene round bottom plates. First, 10 μL of the diluted sample was combined with 10 μL of the enzyme solution at room temperature for 10 minutes using a shaker. 10 μL of Poly (Glu, Tyr) 4:1 (Sigma) matrix solution in an appropriate concentration and 10 μL of ATP solution (5˜300 μM) were added to the sample and subjected to a reaction at room temperature for 60 minutes in a shaker. After 60 minutes, an EDTA solution was added thereto to complete the kinase reaction and the reaction mixture was left in a shaker for 5 minutes at room temperature. A tracer, an antibody, and a fluorescence polarization (FP) diluted reaction solution were mixed at a ratio of 1:1:3 to prepare a detecting solution, 50 μL of which was added to the each sample and subjected to a reaction at room temperature for 30 minutes in a shaker. As fluorescing, light was blocked out and the FP value was measured using a FP instrument (excitation wavelength: 485 nm, and emission wavelength: 530 nm).
(§5) And the inhibition on kinase reaction was calculated for the sample in the range of 0˜100% as compared to the control group, and the concentration on x-axis at 50% inhibition was obtained as an inhibitory concentration (IC50) value.
(§6) 50% inhibitory concentration (IC50) Y=bottom+(top−bottom)/(1+10exp(X−log IC50)

Bcr-Abl^T315I = target: T2, Bcr-Abl^T315I (Homo sapiens, UniProt P00519, T315I); experiment: as above; type: biochemical; details: T315I mutation kinase domain (Millipore), Poly (Glu, Tyr) 4:1 substrate, FP readout
T2 construct: purchased Millipore
T2 sequence (P00519 242-493 T315I limits assumed): T1 sequence (P00519 242-493 limits assumed) with T74I
Method: as §1, §2, §3, §4, §5, §6

Question: `CCN1CCN(c2cc(NC(=O)c3ccc(C)c(/C=C/c4csc5c(N)ncnc45)c3)cc(C(F)(F)F)c2)CC1` [Example 3, (E)-3-(2-(4-aminothieno[3,2-d]pyrimidine-7-yl)vinyl)-N-(3-(4-ethylpiperazine-1-yl)-5-(trifluoromethyl)phenyl)-4-methylbenzamide] was tested. Which IC50 (Bcr-Abl^wt) did it give?
Answer: 1 to 100 nM

Question: And the IC50 (Bcr-Abl^T315I)?
Answer: 1000 to 10000 nM

Question: With `Cc1ccc(NC(=O)c2cccc(C(F)(F)F)c2)cc1/C=C/c1csc2c(N)ncnc12` [Example 6, (E)-N-(3-(2-(4-aminothieno[3,2-d]pyrimidine-7-yl)vinyl)-4-methylphenyl)-3-(trifluoromethyl)benzamide] as the molecule, how does the IC50 (Bcr-Abl^wt) read?
Answer: 100 to 1000 nM

Question: What about the IC50 (Bcr-Abl^T315I) of the same molecule?
Answer: 1000 to 10000 nM

Question: For `CCN1CCN(Cc2ccc(C(=O)Nc3ccc(C)c(/C=C/c4csc5c(N)ncnc45)c3)cc2C(F)(F)F)CC1` [Example 7, (E)-N-(3-(2-(4-aminothieno[3,2-d]pyrimidine-7-yl)vinyl)-4-methylphenyl)-4-((4-ethylpiperazin-1-yl)methyl)-3-(trifluoromethyl)benzamide], which IC50 (Bcr-Abl^wt) is on record?
Answer: 1 to 100 nM

Question: What about the IC50 (Bcr-Abl^T315I) of the same molecule?
Answer: 100 to 1000 nM

Question: What does the source list for `Cc1ccc(C(=O)Nc2cccc(C(F)(F)F)c2)cc1NC(=O)c1csc2c(N)ncnc12` [Example 8, 4-amino-N-(2-methyl-5-(3-(trifluoromethyl)phenylcarbamoyl)phenyl)thieno[3,2-d]pyrimidine-7-carboxamide]?
Answer: IC50 (Bcr-Abl^wt): 1 to 100 nM; IC50 (Bcr-Abl^T315I): 1 to 100 nM

Question: With `COc1cc(NC(=O)c2ccc(C)c(NC(=O)c3csc4c(N)ncnc34)c2)cc(OC)c1` [Example 12, 4-amino-N-(5-(3,5-dimethoxyphenylcarbamoyl)-2-methylphenyl)thieno[3,2-d]pyrimidine-7-carboxamide] as the molecule, how does the IC50 (Bcr-Abl^wt) read?
Answer: 1 to 100 nM

Question: And the IC50 (Bcr-Abl^T315I)?
Answer: 100 to 1000 nM

Question: What does the source list for `COc1cc(Nc2ncnc3c(C(=O)Nc4cc(C(=O)Nc5cccc(C(F)(F)F)c5)ccc4C)csc23)cc(OC)c1OC` [Example 14, N-(2-methyl-5-(3-(trifluoromethyl)phenylcarbamoyl)phenyl)-4-(3,4,5-trimethoxyphenylamino)thieno[3,2-d]pyrimidine-7-carboxamide]?
Answer: IC50 (Bcr-Abl^wt): 100 to 1000 nM; IC50 (Bcr-Abl^T315I): 1000 to 10000 nM

Question: Which IC50 (Bcr-Abl^wt) does the source give for `Cc1ccc(C(=O)Nc2cccc(C(F)(F)F)c2)cc1NC(=O)c1csc2c(NC(C)C)ncnc12` [Example 17, 4-(isopropylamino)-N-(2-methyl-5-(3-(trifluoromethyl)phenylcarbamoyl)phenyl)thieno[3,2-d]pyrimidine-7-carboxamide] here?
Answer: 1 to 100 nM

Question: And the IC50 (Bcr-Abl^T315I)?
Answer: 1000 to 10000 nM

Question: How did the IC50 (Bcr-Abl^wt) turn out when `CC(=O)OCc1ccc(NC(=O)c2ccc(C)c(NC(=O)c3csc4c(NC5CC5)ncnc34)c2)cc1C(F)(F)F` [Example 23, 4-(3-(4-(cyclopropylamino)thieno[3,2-d]pyrimidine-7-carboxamido)-4-methylbenzamido)-2-(trifluoromethyl)benzyl acetate] was run?
Answer: 1 to 100 nM

Question: And the IC50 (Bcr-Abl^T315I)?
Answer: 1000 to 10000 nM

Question: Which IC50 (Bcr-Abl^wt) does the source give for `Cc1ccc(C(=O)Nc2ccc(CO)c(C(F)(F)F)c2)cc1NC(=O)c1csc2c(NC3CC3)ncnc12` [Example 24, 4-(cyclopropylamino)-N-(5-(4-(hydroxymethyl)-3-(trifluoromethyl)phenylcarbamoyl)-2-methylphenyl)thieno[3,2-d]pyrimidine-7-carboxamide] here?
Answer: 1 to 100 nM

Question: What about the IC50 (Bcr-Abl^T315I) of the same molecule?
Answer: 1 to 100 nM

Question: Which results are given for `Cc1ccc(C(=O)Nc2ccc(N3CCOCC3)nc2)cc1NC(=O)c1csc2c(NC3CC3)ncnc12` [Example 29, 4-(cyclopropylamino)-N-(2-methyl-5-(6-morpholinopyridine-3-ylcarbamoyl)phenyl)thieno[3,2-d]pyrimidine-7-carboxamide]?
Answer: IC50 (Bcr-Abl^wt): 1 to 100 nM; IC50 (Bcr-Abl^T315I): 1000 to 10000 nM

Question: For `CCN1CCN(c2ccc(NC(=O)c3ccc(C)c(NC(=O)c4csc5c(NC6CC6)ncnc45)c3)cn2)CC1` [Example 30, 4-(cyclopropylamino)-N-(5-(6-(4-ethylpiperazine-1-yl)pyridine-3-ylcarbamoyl)-2-methylphenyl)thieno[3,2-d]pyrimidine-7-carboxamide], which IC50 (Bcr-Abl^wt) is on record?
Answer: 1000 to 10000 nM

Question: And the IC50 (Bcr-Abl^T315I)?
Answer: 1000 to 10000 nM

Question: Which results are given for `Cc1cn(-c2cc(NC(=O)c3ccc(C)c(NC(=O)c4csc5c(NC6CC6)ncnc45)c3)cc(C(F)(F)F)c2)c(C)n1` [Example 31, 4-(cyclopropylamino)-N-(5-(3-(2,4-dimethyl-1H-imidazole-1-yl)-5-(trifluoromethyl)phenylcarbamoyl)-2-methylphenyl)thieno[3,2-d]pyrimidine-7-carboxamide]?
Answer: IC50 (Bcr-Abl^wt): 1 to 100 nM; IC50 (Bcr-Abl^T315I): 1 to 100 nM

Question: For `COc1ccc(C(=O)Nc2cc(-n3cnc(C)c3)cc(C(F)(F)F)c2)cc1NC(=O)c1csc2c(NC3CC3)ncnc12` [Example 36, 4-(cyclopropylamino)-N-(2-methoxy-5-(3-(4-methyl-1H-imidazole-1-yl)-5-(trifluoromethyl)phenylcarbamoyl)phenyl)thieno[3,2-d]pyrimidine-7-carboxamide], which IC50 (Bcr-Abl^wt) is on record?
Answer: 1 to 100 nM

Question: And the IC50 (Bcr-Abl^T315I)?
Answer: 1000 to 10000 nM

Question: Which results are given for `Cc1ccc(NC(=O)c2cccc(C(F)(F)F)c2)cc1NC(=O)c1csc2c(N)ncnc12` [Example 39, 4-amino-N-(2-methyl-5-(3-(trifluoromethyl)benzamido)phenyl)thieno[3,2-d]pyrimidine-7-carboxamide]?
Answer: IC50 (Bcr-Abl^wt): 1 to 100 nM; IC50 (Bcr-Abl^T315I): 1 to 100 nM

Question: Which IC50 (Bcr-Abl^wt) does the source give for `Cc1ccc(NC(=O)c2cc(NCCCN(C)C)cc(C(F)(F)F)c2)cc1NC(=O)c1csc2c(NC3CC3)ncnc12` [Example 41, 4-(cyclopropylamino)-N-(5-(3-(3-(dimethylamino)propylamino)-5-(trifluoromethyl)benzamido)-2-methylphenyl)thieno[3,2-d]pyrimidine-7-carboxamide] here?
Answer: 1 to 100 nM

Question: And the IC50 (Bcr-Abl^T315I)?
Answer: 1 to 100 nM

Question: For `COc1cc(OC)cc(C(=O)Nc2ccc(C)c(NC(=O)c3csc4c(N)ncnc34)c2)c1` [Example 43, 4-amino-N-(5-(3,5-dimethoxybenzamido)-2-methylphenyl)thieno[3,2-d]pyrimidine-7-carboxamide], which IC50 (Bcr-Abl^wt) is on record?
Answer: 1 to 100 nM

Question: And the IC50 (Bcr-Abl^T315I)?
Answer: 100 to 1000 nM

Question: With `Cc1ccc(NC(=O)c2cc(-n3cccc3)cc(C(F)(F)F)c2)cc1NC(=O)c1csc2c(N)ncnc12` [Example 45, N-(5-(3-(1H-pyrrol-1-yl)-5-(trifluoromethyl)benzamido)-2-methylphenyl)-4-aminothieno[3,2-d]pyrimidine-7-carboxamide] as the molecule, how does the IC50 (Bcr-Abl^wt) read?
Answer: 1 to 100 nM

Question: What about the IC50 (Bcr-Abl^T315I) of the same molecule?
Answer: 1 to 100 nM

Question: `CCN1CCN(Cc2ccc(C(=O)Nc3ccc(C)c(NC(=O)c4csc5c(N)ncnc45)c3)cc2C(F)(F)F)CC1` [Example 49, 4-amino-N-(5-(4-((4-ethylpiperazine-1-yl)methyl)-3-(trifluoromethyl)benzamido)-2-methylphenyl)thieno[3,2-d]pyrimidine-7-carboxamide] was tested. Which IC50 (Bcr-Abl^wt) did it give?
Answer: 1 to 100 nM

Question: And the IC50 (Bcr-Abl^T315I)?
Answer: 1 to 100 nM

Question: `COc1cc(C(=O)Nc2ccc(C)c(NC(=O)c3csc4c(N)ncnc34)c2)nc2ccccc12` [Example 56, 4-amino-N-(5-(4-methoxyquinoline-2-carboxyamido)-2-methylphenyl)thieno[3,2-d]pyrimidine-7-carboxamide] was tested. Which IC50 (Bcr-Abl^wt) did it give?
Answer: 100 to 1000 nM

Question: What about the IC50 (Bcr-Abl^T315I) of the same molecule?
Answer: 1000 to 10000 nM

Question: Which IC50 (Bcr-Abl^wt) does the source give for `Cc1ccc(NC(=O)c2cc(-n3ccnc3C)cc(C(F)(F)F)c2)cc1NC(=O)c1csc2c(N)ncnc12` [Example 61, 4-amino-N-(2-methyl-5-(3-(2-methyl-1H-imidazole-1-yl)-5-(trifluoromethyl)benzamido)phenyl)thieno[3,2-d]pyrimidine-7-carboxamide] here?
Answer: 1 to 100 nM

Question: And the IC50 (Bcr-Abl^T315I)?
Answer: 1 to 100 nM

Question: How did the IC50 (Bcr-Abl^wt) turn out when `COc1cccc(C(=O)Nc2ccc(C)c(NC(=O)c3csc4c(N)ncnc34)c2)c1` [Example 65, 4-amino-N-(5-(3-methoxybenzamido)-2-methylphenyl)thieno[3,2-d]pyrimidine-7-carboxamide] was run?
Answer: 1 to 100 nM

Question: What about the IC50 (Bcr-Abl^T315I) of the same molecule?
Answer: 1000 to 10000 nM
